Article PMC11453076, “Optimization, purification and characterization of laccase from a new endophytic Trichoderma harzianum AUMC14897 isolated from Opuntia ficus-indica and its applications in dye decolorization and wastewater treatment” (Microbial Cell Factories, 2024)

System: T1, laccase from T. harzianum AUMC14897
T1 construct: gene benzenediol:oxygen oxidoreductase; 72 kDa by GFC and SDS-PAGE; single zymogram band
Assay: ABTS oxidation at […] nm, Lineweaver-Burk plot
Type: biochemical, Trichoderma harzianum
Details: ABTS 0.02-0.1 mM; pH and temperature of the Km assay not restated (general assay: 50 mM sodium acetate pH 5.4, 37 °C)

CCn1c(=NN=c2sc3cc(S(=O)(=O)O)ccc3n2CC)sc2cc(S(=O)(=O)O)ccc21 [ABTS, 2,2'-Azino-bis(3-ethylbenzothiazoline-6-sulfonic acid)]
Km: 100 µM
